Source: patent US9279010B2, “Treatment of inflammatory bowel diseases with mammal beta defensins” (Defensin Therapeutics ApS, priority 2008, dated 2016)
Where no end group is shown, it is not given here.

Legend:
[1] = system: human PBMC; assay: IL-23 in supernatants of human PBMC, ELISA (Example 6, Table 25); type: cell-based
Method: (§1) Peripheral blood was drawn from healthy volunteers (with approval from the relevant ethical committee in Denmark). Heparinized blood was diluted 1/1 v/v with RPMI and were subjected to Ficoll density centrifugation within 2 h of drawing. Plasma was collected from the top from individual donors and was kept on ice until it was used at 2% in the culture medium (autologous culture medium). Isolated PBMC were resuspended in autologous culture medium and seeded in 96-well culture plates with 255.000 cells per well in a total of 200 μl. […] The concentrations used for stimulation were optimized on 3 different donors in initial experiments, for LPS two different concentrations were used to be sure to be on a cytokine level that is possible to modulate. In some experiments PBMC were treated with Dexamethason and Indomethacin alone and together with LPS or LTA as a control on downregulation of inflammatory cytokines. The supernatants were collected after incubation at 37° C. for 24 hours, and stored at −80° C. until cytokine measurement. Viability was measured by Alamar Blue (Biosource, DALL 1100) in all experiments and in some cases also by MTS (Promega) according to manufacturer's instruction and was in some experiments also judged by counting of the cells by a Nucleocounter.
Example 6 was carried out essentially as described in Example 4 for human PBMCs; however, the readout was IL-23 instead of TNF, IL-1β and IL-10. Moreover, the effect of rhBD2 on human monocyte-derived dendritic cells was also investigated.
Cell culture supernatants were collected and stored at −80° C. Amounts of IL-23 was measured by standard sandwich ELISA using commercially available antibodies and standards according to the manufacturer's protocols (eBioscience).
All experiments were performed at least twice, with representative results shown. The data presented are expressed as mean plus/minus standard deviation […]. […] Differences were considered significant for p<0.05.

[2] = system: human peripheral blood mononuclear cells (PBMC); assay: TNF production from LPS-treated human PBMC, CBA (Example 5); type: cell-based; conditions: Table 21
Method: as §1
(§2) Cytokine production in supernatants was measured by flow cytometry with a human inflammation cytometric bead array (CBA) according to manufacturer's instructions (BD) on a FACSarray flow cytometer. The following cytokines were measured: IL-8, IL-1β, IL-10, TNF, IL-12 p70, IL-6. In some experiments, cytokines were measured by ELISA kits from R&D systems (IL-10, TNF-α, IL-1β) according to the manufacturer′ instruction.
(§3) Example 5 was carried out essentially as described in Example 4.
(§4) In each table, all samples were tested on the same donor. SD means standard deviation.

[3] = system: human peripheral blood mononuclear cells (PBMC); assay: IL-10 production from LPS-treated human PBMC, CBA (Example 5); type: cell-based; conditions: Table 22
Method: as §1, §2, §4

[4] = system: human peripheral blood mononuclear cells (PBMC); assay: IL-1β production from LPS-treated human PBMC, CBA (Example 5, Table 23); type: cell-based
Method: as §1, §2, §3, §4

[5] = system: human peripheral blood mononuclear cells (PBMC); assay: TNF production from LPS-treated human PBMC, CBA (Example 7, Table 26); type: cell-based; conditions: test compound 1 μg/ml
Method: as §1, §2
(§5) Example 7 was carried out essentially as described in Example 4 for human PBMCs. […] The amino acid sequence of mBD3 is shown in SEQ ID NO:6. Mouse PBMCs were prepared as described below.

[6] = system: mouse peripheral blood mononuclear cells (PBMC); assay: TNF production from LPS-treated mouse PBMC, CBA (Example 7); type: cell-based, mouse (NMRI); conditions: 1 μg/ml
Method: as §5
Mouse peripheral blood mononuclear cells were isolated from blood of ten NMRI mice. In short, heparinized blood was diluted 1/1 v/v with RPMI and subjected to Ficoll density centrifugation within 2 h of drawing. Plasma was collected from the top and discarded. Isolated PBMC were resuspended in culture medium (RPMI 1640 (Gibco, 42401) w/ 1% penicillin and streptomycin and 1% L-Glutamine) and seeded in 96-well culture plates with 115.500 cells per well in a total of 200 μl. […] The supernatants were collected after incubation at 37° C. for 24 hours, and stored at −80° C. until cytokine measurement.
Cytokine production in supernatants was measured by flow cytometry with a mouse inflammation cytometric bead array (CBA) according to manufacturer's instructions (BD) on a FACSarray flow cytometer.

[7] = concentration not given, LPS 0.6 ng/ml
[8] = concentration not given, LPS 20 ng/ml
[9] = concentration not given, Medium
[10] = LPS 0.6 ng/ml, concentration of test compound not given
[11] = LPS 20 ng/ml, concentration of test compound not given
[12] = LPS 0.6 ng/ml, test compound 1 μg/ml
[13] = LPS 20 ng/ml, test compound 1 μg/ml
[14] = LPS 0.6 ng/ml, test compound 10 μg/ml
[15] = LPS 0.6 ng/ml, test compound 40 μg/ml
[16] = LPS 20 ng/ml, test compound 10 μg/ml
[17] = LPS 20 ng/ml, test compound 40 μg/ml

`C[C@@H]1C[C@H]2[C@@H]3CCC4=CC(=O)C=C[C@]4(C)[C@@]3(F)[C@@H](O)C[C@]2(C)[C@@]1(O)C(=O)CO` [Dexamethasone] gave an IL-23 pg/ml ([1]; Control (medium), test compound 3.5 ng/ml) of 222 pg/mL and an IL-23 pg/ml ([1]; LTA 5 μg/ml, test compound 3.5 ng/ml) of 223 pg/mL.
In the case of “Infliximab: anti-inflammatory compound, positive control on downregulation of TNF [reference compound]”, the TNF [2, 7] is reported as 0 pg/mL, the “TNF % of control” value [2, 7] is reported as 0% and the TNF [2, 8] is reported as 0 pg/mL. For the same compound, the “TNF % of control” value [2, 8] was 0%, the TNF [2, 9] was 0 pg/mL and the IL-10 [3, 7] was 46 pg/mL. For the same compound, the “IL-10 % of control” value [3, 7] was 69%, the IL-10 [3, 8] was 63 pg/mL and the “IL-10 % of control” value [3, 8] was 56%. For the same compound, the IL-10 [3, 9] was 0 pg/mL, the IL-1β [4, 10] was 636 pg/mL and the “IL-1β % of control” value [4, 10] was 86%. The IL-1β [4, 11] was 2704 pg/mL, the “IL-1β % of control” value [4, 11] was 106% and the IL-1β ([4]; Medium (no LPS), concentration of test compound not given) was 0 pg/mL. The IL-23 pg/ml ([1]; Control (medium), test compound 1 μg/ml) was 227 pg/mL, the IL-23 pg/ml [1, 12] was 356 pg/mL and the IL-23 pg/ml [1, 13] was 373 pg/mL. For the same compound, the IL-23 pg/ml ([1]; LTA 5 μg/ml, test compound 1 μg/ml) was 349 pg/mL, the TNF ([5]; LPS 20 ng/ml) was 1 pg/mL and the TNF ([5]; Medium (no LPS)) was 0 pg/mL. The TNF ([6]; LPS 20 ng/ml) was 2119 pg/mL and the TNF ([6]; Medium) was 530 pg/mL.
With “hBD1: human beta defensin 1 (SEQ ID NO:1), prepared using chemical synthesis (DHYNCVSSGGQCLYSACPIFTKIQGTCYRGKAKCCK; not fully specified; cysteine pairing not given here; listed as Homo sapiens)” the TNF ([2]; 1 μg/ml, LPS 0.6 ng/ml) was 474 pg/mL, the “TNF % of control” value ([2]; 1 μg/ml, LPS 0.6 ng/ml) was 65% and the TNF ([2]; 1 μg/ml, LPS 20 ng/ml) was 1395 pg/mL. The “TNF % of control” value ([2]; 1 μg/ml, LPS 20 ng/ml) was 64%, the TNF ([2]; 1 μg/ml, Medium) was 1 pg/mL and the TNF ([2]; 10 μg/ml, LPS 0.6 ng/ml) was 203 pg/mL. The “TNF % of control” value ([2]; 10 μg/ml, LPS 0.6 ng/ml) was 28%, the TNF ([2]; 10 μg/ml, LPS 20 ng/ml) was 1311 pg/mL and the “TNF % of control” value ([2]; 10 μg/ml, LPS 20 ng/ml) was 61%. For the same compound, the TNF ([2]; 10 μg/ml, Medium) was 0 pg/mL, the TNF ([2]; 40 μg/ml, LPS 0.6 ng/ml) was 91 pg/mL and the “TNF % of control” value ([2]; 40 μg/ml, LPS 0.6 ng/ml) was 13%. The TNF ([2]; 40 μg/ml, LPS 20 ng/ml) was 999 pg/mL, the “TNF % of control” value ([2]; 40 μg/ml, LPS 20 ng/ml) was 46% and the TNF ([2]; 40 μg/ml, Medium) was 0 pg/mL. For the same compound, the IL-10 ([3]; 1 μg/ml, LPS 0.6 ng/ml) was 71 pg/mL, the “IL-10 % of control” value ([3]; 1 μg/ml, LPS 0.6 ng/ml) was 108% and the IL-10 ([3]; 1 μg/ml, LPS 20 ng/ml) was 95 pg/mL. For the same compound, the “IL-10 % of control” value ([3]; 1 μg/ml, LPS 20 ng/ml) was 85%, the IL-10 ([3]; 1 μg/ml, Medium) was 0 pg/mL and the IL-10 ([3]; 10 μg/ml, LPS 0.6 ng/ml) was 76 pg/mL. For the same compound, the “IL-10 % of control” value ([3]; 10 μg/ml, LPS 0.6 ng/ml) was 114%, the IL-10 ([3]; 10 μg/ml, LPS 20 ng/ml) was 100 pg/mL and the “IL-10 % of control” value ([3]; 10 μg/ml, LPS 20 ng/ml) was 90%. The IL-10 ([3]; 10 μg/ml, Medium) was 0 pg/mL, the IL-10 ([3]; 40 μg/ml, LPS 0.6 ng/ml) was 69 pg/mL and the “IL-10 % of control” value ([3]; 40 μg/ml, LPS 0.6 ng/ml) was 104%. For the same compound, the IL-10 ([3]; 40 μg/ml, LPS 20 ng/ml) was 113 pg/mL, the “IL-10 % of control” value ([3]; 40 μg/ml, LPS 20 ng/ml) was 102% and the IL-10 ([3]; 40 μg/ml, Medium) was 0 pg/mL. For the same compound, the IL-1β [4, 12] was 512 pg/mL, the “IL-1β % of control” value [4, 12] was 69% and the IL-1β [4, 14] was 401 pg/mL. For the same compound, the “IL-1β % of control” value [4, 14] was 54%, the IL-1β [4, 15] was 302 pg/mL and the “IL-1β % of control” value [4, 15] was 41%. The IL-1β [4, 13] was 2087 pg/mL, the “IL-1β % of control” value [4, 13] was 82% and the IL-1β [4, 16] was 1913 pg/mL. The “IL-1β % of control” value [4, 16] was 75%, the IL-1β [4, 17] was 1599 pg/mL and the “IL-1β % of control” value [4, 17] was 63%. The IL-1β ([4]; Medium (no LPS), test compound 1 μg/ml) was 0 pg/mL, the IL-1β ([4]; Medium (no LPS), test compound 10 μg/ml) was 0 pg/mL and the IL-1β ([4]; Medium (no LPS), test compound 40 μg/ml) was 0 pg/mL.
